Test results as given in PubChem BioAssay AID248 (DTP/NCI, 2004).
Where “and” joins values, the source holds several entries; their conditions need not be identical. Equal values may be shown once. Inconclusive results and toxic doses are left out. Cut-off read from the data, not from the text of the source: active = T/C of 150% or more; inactive = T/C below 125%.

System: L1210 leukemia ip in BDF1 mice, survival T/C
Test: NCI In Vivo Anticancer Drug Screen. Data for tumor model L1210 Leukemia (intraperitoneal) in B6D2F1 (BDF1) mice
Conditions: endpoint: mean survival time, higher = longer survival
Method in brief: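 Each compound was tested against a transplantable tumor grown in mice. The endpoint was survival, with treated animals benchmarked against vehicle controls as a simple ratio.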

[1] = dose: 100.0 mg/kg/injection, schedule: Q04DX003 (ip), vehicle: Klucel (hydroxypropylcellulose) (HPC)
[2] = dose: 200.0 mg/kg/injection, schedule: Q04DX003 (ip), vehicle: Klucel (hydroxypropylcellulose) (HPC)
[3] = dose: 100.0 mg/kg/injection, schedule: Q01DX001 (ip), vehicle: saline
[4] = dose: 100.0 mg/kg/injection, schedule: Q01DX001 (ip), vehicle: carboxymethylcellulose (CMC)
[5] = dose: 200.0 mg/kg/injection, schedule: Q01DX001 (ip), vehicle: carboxymethylcellulose (CMC)
[6] = dose: 400.0 mg/kg/injection, schedule: Q01DX001 (ip), vehicle: carboxymethylcellulose (CMC)
[7] = dose: 100.0 mg/kg/injection, schedule: Q04DX003 (ip), vehicle: saline
[8] = dose: 100.0 mg/kg/injection, schedule: Q01DX009 (ip), vehicle: saline with Tween-80
[9] = dose: 200.0 mg/kg/injection, schedule: Q01DX009 (ip), vehicle: saline with Tween-80
[10] = dose: 400.0 mg/kg/injection, schedule: Q01DX009 (ip), vehicle: saline with Tween-80

Measured: T/C

O=C(c1ccccc1)c1ccsc1C(=O)O
inactive: dose: 6.25 mg/kg/injection, schedule: Q04DX002 (ip), vehicle: saline with Tween-80 94 % of control | dose: 12.5 mg/kg/injection, schedule: Q04DX002 (ip), vehicle: saline with Tween-80 97 % of control | dose: 25.0 mg/kg/injection, schedule: Q04DX002 (ip), vehicle: saline with Tween-80 90 % of control | dose: 200.0 mg/kg/injection, schedule: Q04DX002 (ip), vehicle: saline with Tween-80 101 % of control | dose: 400.0 mg/kg/injection, schedule: Q04DX002 (ip), vehicle: saline with Tween-80 89 % of control

Oc1ccccc1C=NC1CCCCC1.Oc1ccccc1C=NC1CCCCC1.[Co+2]
inactive: [1] 100 % of control | [2] 100 % of control

Clc1ccccc1C(c1ccc(I)cc1)C(Cl)Cl (centres undefined)
inactive: [3] 101 % of control | dose: 200.0 mg/kg/injection, schedule: Q01DX001 (ip), vehicle: saline 93 % of control | dose: 400.0 mg/kg/injection, schedule: Q01DX001 (ip), vehicle: saline 104 % of control

CCOC(=O)C1CC2(c3ccccc3)C(c3ccccc3)=C(c3ccccc3)C1(c1ccccc1)C2O (centres undefined)
inactive: dose: 50.0 mg/kg/injection, schedule: Q01DX001 (ip), vehicle: carboxymethylcellulose (CMC) 94 % of control | [4] 94 % of control | [5] 103 % of control | [6] 94 % of control

O=S1CCOCC1.O=S1CCOCC1.O=S1CCOCC1.O=S1CCOCC1.O=S1CCOCC1.O=S1CCOCC1.[Hg+2].[O-][Cl+3]([O-])([O-])O
inactive: dose: 3.0 mg/kg/injection, schedule: Q01DX009 (ip), vehicle: Klucel (hydroxypropylcellulose) (HPC) 93 % of control | dose: 6.0 mg/kg/injection, schedule: Q01DX009 (ip), vehicle: Klucel (hydroxypropylcellulose) (HPC) 92 % of control | dose: 12.5 mg/kg/injection, schedule: Q01DX009 (ip), vehicle: Klucel (hydroxypropylcellulose) (HPC) 98 % of control

CCOP(=S)(N/N=C1/CCCC(C)C1)OCC (centres undefined)
inactive: [4] 93 % of control | [5] 93 % of control | [6] 97 % of control

O=COc1ccc([N+](=O)[O-])cc1
inactive: dose: 25.0 mg/kg/injection, schedule: Q01DX009 (ip), vehicle: saline 98 % of control | dose: 50.0 mg/kg/injection, schedule: Q01DX009 (ip), vehicle: saline 95 % of control | dose: 100.0 mg/kg/injection, schedule: Q01DX009 (ip), vehicle: saline 98 % of control | [7] 101 % of control

C=CCOC(=O)C(=O)OCC=C
inactive: [8] 95 % of control

C1CCCCCC(C2CCCCCCCCCCC2)CCCCC1
inactive: dose: 25.0 mg/kg/injection, schedule: Q01DX009 (ip), vehicle: acetone 94 % of control | dose: 25.0 mg/kg/injection, schedule: Q04DX003 (ip), vehicle: saline 94 % of control | dose: 50.0 mg/kg/injection, schedule: Q01DX009 (ip), vehicle: acetone 93 % of control | dose: 50.0 mg/kg/injection, schedule: Q04DX003 (ip), vehicle: saline 92 % of control | [3] 92 % of control | dose: 100.0 mg/kg/injection, schedule: Q01DX009 (ip), vehicle: acetone 98 % of control | [7] 92 % of control | dose: 150.0 mg/kg/injection, schedule: Q01DX009 (ip), vehicle: saline 90 % of control | dose: 225.0 mg/kg/injection, schedule: Q01DX009 (ip), vehicle: saline 88 % of control | dose: 335.0 mg/kg/injection, schedule: Q01DX009 (ip), vehicle: saline 93 % of control

CCC1CN2CCc3cc(OC)c(OC)cc3C2CC1=O (centres undefined)
inactive: dose: 50.0 mg/kg/injection, schedule: Q01DX009 (ip), vehicle: saline with Tween-80 102 % of control | [8] 103 % of control and 108 % of control | [9] 124 % of control

CCOC(=O)NP(NC(=O)NOC)NC(=O)OCC
inactive: [4] 101 % of control | [5] 93 % of control | [6] 101 % of control

CNC(=S)N(C)c1ccccc1
inactive: dose: 100.0 mg/kg/injection, schedule: Q04DX002 (ip), vehicle: Klucel (hydroxypropylcellulose) (HPC) 100 % of control | dose: 200.0 mg/kg/injection, schedule: Q04DX002 (ip), vehicle: Klucel (hydroxypropylcellulose) (HPC) 107 % of control | dose: 400.0 mg/kg/injection, schedule: Q04DX002 (ip), vehicle: Klucel (hydroxypropylcellulose) (HPC) 104 % of control

O=C(O)C1C2/C=C/CCCCC21 (centres undefined)
inactive: dose: 100.0 mg/kg/injection, schedule: Q04DX002 (ip), vehicle: other 104 % of control | dose: 200.0 mg/kg/injection, schedule: Q04DX002 (ip), vehicle: other 86 % of control | dose: 400.0 mg/kg/injection, schedule: Q04DX002 (ip), vehicle: other 93 % of control

CC1=CC(=O)C2COc3c2c1cc1c(C)cc(=O)n(C)c31 (centres undefined)
inactive: dose: 50.0 mg/kg/injection, schedule: Q04DX003 (ip), vehicle: Klucel (hydroxypropylcellulose) (HPC) 97 % of control | dose: 100.0 mg/kg/injection, schedule: Q01DX001 (ip), vehicle: Klucel (hydroxypropylcellulose) (HPC) 95 % of control | [1] 113 % of control | dose: 200.0 mg/kg/injection, schedule: Q01DX001 (ip), vehicle: Klucel (hydroxypropylcellulose) (HPC) 95 % of control | [2] 97 % of control | dose: 400.0 mg/kg/injection, schedule: Q01DX001 (ip), vehicle: Klucel (hydroxypropylcellulose) (HPC) 97 % of control

C/C(=N\O)c1ccc2ccc3ccccc3c2c1
inactive: dose: 100.0 mg/kg/injection, schedule: Q01DX009 (ip), vehicle: saline sonified 105 % of control | [8] 101 % of control | [1] 103 % of control | dose: 200.0 mg/kg/injection, schedule: Q01DX009 (ip), vehicle: saline sonified 93 % of control | [9] 93 % of control | [2] 103 % of control | dose: 400.0 mg/kg/injection, schedule: Q01DX009 (ip), vehicle: saline sonified 94 % of control | [10] 95 % of control | dose: 400.0 mg/kg/injection, schedule: Q04DX003 (ip), vehicle: Klucel (hydroxypropylcellulose) (HPC) 115 % of control

COc1ccc(C(=O)CC2CCCC(CC(=O)c3ccc(OC)cc3)N2C)cc1 (centres undefined)
inactive: dose: 75.0 mg/kg/injection, schedule: Q01DX001 (ip), vehicle: other 98 % of control | dose: 150.0 mg/kg/injection, schedule: Q01DX001 (ip), vehicle: other 90 % of control

CN=C1N[N+]2=CCSCC2(C)S1 (centres undefined)
inactive: dose: 0.2 mg/kg/injection, schedule: Q03HX024 (ip), vehicle: saline 90 % of control | dose: 0.39 mg/kg/injection, schedule: Q03HX024 (ip), vehicle: saline 98 % of control | dose: 0.78 mg/kg/injection, schedule: Q03HX024 (ip), vehicle: saline 98 % of control | dose: 1.56 mg/kg/injection, schedule: Q03HX024 (ip), vehicle: saline 95 % of control | dose: 3.13 mg/kg/injection, schedule: Q03HX024 (ip), vehicle: saline 105 % of control

CS(=O)(=O)OCC(OS(C)(=O)=O)C(COS(C)(=O)=O)OS(C)(=O)=O (centres undefined)
inactive: [8] 91 % of control | dose: 100.0 mg/kg/injection, schedule: Q04DX003 (ip), vehicle: saline with Tween-80 92 % of control | [9] 100 % of control | dose: 200.0 mg/kg/injection, schedule: Q04DX003 (ip), vehicle: saline with Tween-80 96 % of control | [10] 96 % of control | dose: 400.0 mg/kg/injection, schedule: Q04DX003 (ip), vehicle: saline with Tween-80 96 % of control

N#CC1(C#N)C2C=CC(C3C(Cl)C=CC32)C1(C#N)C#N (centres undefined)
inactive: dose: 12.5 mg/kg/injection, schedule: Q01DX009 (ip), vehicle: saline with Tween-80 87 % of control | dose: 12.5 mg/kg/injection, schedule: Q04DX003 (ip), vehicle: saline with Tween-80 96 % of control | dose: 25.0 mg/kg/injection, schedule: Q01DX009 (ip), vehicle: saline with Tween-80 89 % of control | dose: 25.0 mg/kg/injection, schedule: Q04DX003 (ip), vehicle: saline with Tween-80 94 % of control | dose: 50.0 mg/kg/injection, schedule: Q04DX003 (ip), vehicle: saline with Tween-80 97 % of control

CCCCCCCCCC(C)CCCCC (centres undefined)
inactive: dose: 25.0 mg/kg/injection, schedule: Q01DX001 (ip), vehicle: saline with Tween-80 93 % of control | dose: 50.0 mg/kg/injection, schedule: Q01DX001 (ip), vehicle: saline with Tween-80 98 % of control | dose: 100.0 mg/kg/injection, schedule: Q01DX001 (ip), vehicle: saline with Tween-80 95 % of control and 97 % of control | dose: 200.0 mg/kg/injection, schedule: Q01DX001 (ip), vehicle: saline with Tween-80 98 % of control
